# According to patent US20120289501A1, “Benzene-fused 6-membered oxygen-containing heterocyclic derivatives of bicyclic heteroaryls” (NOVARTIS AG, priority 2009, published 2012):
# Target: IGF1R (Homo sapiens, UniProt P08069)
# Test: Cellular IGF-1R assay: inhibition of IGF1R phosphorylation in transduced Hek293 cells, capture ELISA (MSD)
# Assay type: cell-based
# Design: Hek293 cells transduced with the corresponding receptors; expressed in transfected cells; host or cells: Hek293 (Hek293-IGF1R)
# Description: In this assay the activity of the compounds of the invention against Insulin-like growth factor I (IGF-1) induced autophosphorylation of the IGF-IR is determined. The assay is conducted as follows: Compound-mediated inhibition of IGF1R and INSR phosphorylation in Hek293 cells transduced with the corresponding receptors is assessed in a capture ELISA format using the MSD (Meso Scale Discovery) platform. Briefly, 30′000 cells washed and diluted in starvation medium (DMEM high glucose supplemented with 0.1% BSA) are seeded in 90 μL per well into 96-well plates pre-coated with poly-D-lysine (0.1 mg/mL in PBS/0). After 24 h incubation at 37° C. and 5% CO2, dose-response effects are determined with 3-fold serial compound dilutions, starting at 10 μM. The final vehicle concentration is 0.1% DMSO in all wells. Following pre-incubation with compounds for 1 h, receptor phosphorylation is triggered by a 10 min exposure to 1.0 ng/μL IGF for Hek293-IGF1R cells, and 5.0 ng/μL insulin for Hek293-InsR cells. Cell lysis is achieved by addition of 80 μL MSD lysis buffer per aspirated well, incubation on ice for 20 min, and a freeze-thaw cycle. Target phosphorylation is then assessed by transferring volumes corresponding to approx. 6 μg Hek293-IGF1R or 0.6 μg Hek293-InsR lysates to MSD assay plates pre-coated with total-IGF1R or total-InsR Abs, respectively. After incubation for 2 h at rt, wells are exposed for 1 hr to a rabbit monoclonal antibody (CST #3024, 1:1000) detecting pIGF1R(Tyr1135/1136) as well as pINSR(Tyr1150/1151). Immune complexes are detected by a SULFO-Tag™-coupled anti-rabbit IgG antibody in the presence of 150 μL MSD read-buffer. Light emission at 620 nm triggered by application of electric current is recorded on a MSD SectorImager 6000. Acquired raw data (mean Ru-ECL units) are processed in an Excel analysis template. The plate blank (MSD lysis buffer) is subtracted from all data points. The effect of a particular test compound concentration on receptor phosphorylation is expressed relative to the window defined by ligand-stimulated vs unstimulated control cells (set as 100%). IC50 values [nM] are determined using 4-parametric curve-fitting (XLfit software, V4.3.2). Alternatively, the assay can be conducted with a slightly different format; Compound-mediated inhibition of IGF-1R and InsR phosphorylation in HEK293 cells overexpressing the corresponding receptors were assessed by quantitative Western blot using an Odyssey infrared imager as readout.
# Compound-mediated inhibition of IGF1R and INSR phosphorylation in Hek293 cells transduced with the corresponding receptors is assessed in a capture ELISA format using the MSD (Meso Scale Discovery) platform. Briefly, 30′000 cells washed and diluted in starvation medium (DMEM high glucose supplemented with 0.1% BSA) are seeded in 90 μL per well into 96-well plates pre-coated with poly-D-lysine (0.1 mg/mL in PBS/O). After 24 h incubation at 37° C. and 5% CO2, dose-response effects are determined with 3-fold serial compound dilutions, starting at 10 μM. The final vehicle concentration is 0.1% DMSO in all wells. Following pre-incubation with compounds for 1 h, receptor phosphorylation is triggered by a 10 min exposure to 1.0 ng/μL IGF for Hek293-IGF1R cells, and 5.0 ng/μL insulin for Hek293-InsR cells. Cell lysis is achieved by addition of 80 μL MSD lysis buffer per aspirated well, incubation on ice for 20 min, and a freeze-thaw cycle. Target phosphorylation is then assessed by transferring volumes corresponding to approx. 6 μg Hek293-IGF1R or 0.6 μg Hek293-lnsR lysates to MSD assay plates pre-coated with total-IGF1R or total-lnsR Abs, respectively. After incubation for 2 h at rt, wells are exposed for 1 hr to a rabbit monoclonal antibody (CST #3024, 1:1000) detecting pIGF1R(Tyr1135/1136) as well as pINSR(Tyr1150/1151). Immune complexes are detected by a SULFO-Tag™-coupled anti-rabbit IgG antibody in the presence of 150 μL MSD read-buffer. […]
# Sequence of IGF1R (P08069 31-1367): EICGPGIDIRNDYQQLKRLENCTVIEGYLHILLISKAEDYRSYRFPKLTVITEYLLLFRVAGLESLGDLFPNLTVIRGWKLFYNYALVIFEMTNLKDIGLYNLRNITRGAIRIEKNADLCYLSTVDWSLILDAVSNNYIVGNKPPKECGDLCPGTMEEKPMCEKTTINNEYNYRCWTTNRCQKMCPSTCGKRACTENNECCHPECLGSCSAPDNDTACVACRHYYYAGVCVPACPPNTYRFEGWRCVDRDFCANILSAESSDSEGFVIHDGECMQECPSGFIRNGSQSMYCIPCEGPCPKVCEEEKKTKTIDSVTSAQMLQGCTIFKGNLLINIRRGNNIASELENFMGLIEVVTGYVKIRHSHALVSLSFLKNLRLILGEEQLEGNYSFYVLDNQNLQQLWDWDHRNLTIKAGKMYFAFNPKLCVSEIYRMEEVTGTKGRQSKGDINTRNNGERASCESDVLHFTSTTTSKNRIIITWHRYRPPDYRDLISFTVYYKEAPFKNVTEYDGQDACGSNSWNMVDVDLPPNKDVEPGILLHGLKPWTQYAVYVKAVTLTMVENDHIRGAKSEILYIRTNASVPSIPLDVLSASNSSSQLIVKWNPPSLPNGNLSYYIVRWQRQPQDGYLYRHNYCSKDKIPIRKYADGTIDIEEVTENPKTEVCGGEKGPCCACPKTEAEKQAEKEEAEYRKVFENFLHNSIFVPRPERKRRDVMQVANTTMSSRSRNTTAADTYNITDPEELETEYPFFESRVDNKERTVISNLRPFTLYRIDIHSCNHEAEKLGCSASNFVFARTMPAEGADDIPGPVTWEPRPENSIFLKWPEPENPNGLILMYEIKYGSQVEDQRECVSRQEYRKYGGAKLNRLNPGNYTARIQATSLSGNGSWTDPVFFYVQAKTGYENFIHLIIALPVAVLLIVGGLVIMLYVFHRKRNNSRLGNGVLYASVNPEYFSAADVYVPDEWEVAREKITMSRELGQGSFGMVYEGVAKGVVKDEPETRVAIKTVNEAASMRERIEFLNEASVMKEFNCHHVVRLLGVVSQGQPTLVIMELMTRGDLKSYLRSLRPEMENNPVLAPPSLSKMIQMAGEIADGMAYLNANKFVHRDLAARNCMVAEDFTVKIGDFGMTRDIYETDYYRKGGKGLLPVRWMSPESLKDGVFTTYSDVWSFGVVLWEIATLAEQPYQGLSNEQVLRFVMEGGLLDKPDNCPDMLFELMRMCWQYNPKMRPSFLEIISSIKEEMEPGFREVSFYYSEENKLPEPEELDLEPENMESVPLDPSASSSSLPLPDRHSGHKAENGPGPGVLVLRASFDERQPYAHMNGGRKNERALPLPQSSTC
row,Structure (SMILES),IC50
1,"CC(=O)N[C@H]1CC[C@@H](n2cc(-c3ccc4c(c3)OC(c3ccccc3)CC4)c3c(N)ncnc32)CC1 (mixture of isomers) [Example 55, (±)-N-(cis-4-(4-amino-5-(2-phenylchroman-7-yl)-7H-pyrrolo[2,3-d]pyrimidin-7-yl)cyclohexyl)acetamide]",108 nM
2,"Nc1ncnc2c1c(-c1ccc3c(c1)OC(c1ccccn1)CC3)cn2[C@H]1C[C@@](O)(CO)C1 (mixture of isomers) [Example 56, (±)-(E)-3-(4-amino-5-(2-(pyridin-2-yl)chroman-7-yl)-7H-pyrrolo[2,3-d]pyrimidin-7-yl)-1-(hydroxymethyl)cyclobutanol]",548 nM
3,"Nc1ncnc2c1c(-c1ccc3c(c1)OC(c1ccccn1)CC3)cn2[C@H]1C[C@@H](CN2CC[S+]([O-])CC2)C1 (mixture of isomers) [Example 63, (±)-7-(cis-3-(1-oxo-thiomorpholin-4-ylmethyl)cyclobutyl)-5-(2-(pyridin-2-yl)chroman-7-yl)-7H-pyrrolo[2,3-d]pyrimidin-4-amine]",109 nM
4,"Nc1nccn2c1c(-c1ccc3c(c1)O[C@@H](c1ccccc1)C=C3)nc2[C@H]1C[C@@H](CO)C1 (relative stereo) [Example 22, (R,S)-{cis-3-[8-Amino-1-(2-phenyl-2H-chromen-7-yl)-imidazo[1,5-a]pyrazin-3-yl]-cyclobutyl}-methanol]",179 nM
5,"Nc1nccn2c1c(-c1ccc3c(c1)OC(c1ccccc1)CC3)nc2[C@H]1C[C@@H](Cn2ccnc2CO)C1 (relative stereo) [Example 39, (1-{cis-3-[8-Amino-1-(2-phenyl-chroman-7-yl)-imidazo[1,5-a]pyrazin-3-yl]-cyclobutylmethyl}-1H-imidazol-2-yl)-methanol]",218 nM
6,"Nc1ncnc2c1c(-c1ccc3c(c1)OC(c1ccccc1)CC3)cn2C1CC(O)(CO)C1 (single isomer, unassigned) [Example 27]",31 to 112 nM

# The remaining lines, values ahead:
row,IC50,Structure (SMILES)
1,45 nM,"Nc1ncnc2c1c(-c1ccc3c(c1)OC(c1ccccn1)CC3)cn2[C@H]1C[C@@H](CN2CCS(=O)(=O)CC2)C1 (mixture of isomers) [Example 54, (±)-7-(cis-3-(1,1-dioxo-thiomorpholin-4-ylmethyl)cyclobutyl)-5-(2-(pyridin-2-yl)chroman-7-yl)-7H-pyrrolo[2,3-d]pyrimidin-4-amine]"
2,59 nM,"Nc1ncnc2c1c(-c1ccc3c(c1)OC(C1CCCO1)CC3)cn2[C@H]1CC[C@@H](N2CCS(=O)(=O)CC2)CC1 (mixture of isomers) [Example 64, (±)-7-[cis-4-(1,1-dioxo-1λ6-thiomorpholin-4-yl)-cyclohexyl]-5-[2-trans-(tetrahydro-furan-2-yl)chroman-7-yl]-7H-pyrrolo[2,3-d]pyrimidin-4-ylamine]"
3,39 nM,"Nc1ncnc2c1c(-c1ccc3c(c1)OC(C1CCCO1)CC3)cn2[C@H]1CC[C@@H](N2CCS(=O)(=O)CC2)CC1 (mixture of isomers) [Example 65, (±)-7-[cis-4-(1,1-dioxo-1λ6-thiomorpholin-4-yl)-cyclohexyl]-5-[2-cis-(tetrahydro-furan-2-yl)chroman-7-yl]-7H-pyrrolo[2,3-d]pyrimidin-4-ylamine]"
4,88 nM,"Nc1ncnc2c1c(-c1ccc3c(c1)OC(c1ccccc1)CC3)cn2[C@H]1C[C@@H](O)C1 (relative stereo) [Example 48, cis-3-[4-Amino-5-(2-phenyl-chroman-7-yl)-pyrrolo[2,3-d]pyrimidin-7-yl]-cyclobutanol]"
5,96 nM,"Nc1ncnc2c1c(-c1ccc3c(c1)OC(c1ccccc1)CC3)cn2[C@H]1C[C@H](O)C1 (relative stereo) [Example 49, trans-3-[4-Amino-5-(2-phenyl-chroman-7-yl)-pyrrolo[2,3-d]pyrimidin-7-yl]-cyclobutanol]"
6,36 nM,"CCOCC1CCc2ccc(-c3cn([C@H]4C[C@@H](CN5CC[S+]([O-])CC5)C4)c4ncnc(N)c34)cc2O1 (relative stereo) [Example 50, 5-(2-Ethoxymethyl-chroman-7-yl)-7-[cis-3-(1-oxo-thiomorpholin-4-ylmethyl)-cyclobutyl]-7H-pyrrolo[2,3-d]pyrimidin-4-ylamine]"
